These are literature values, as cited in US20160074333A1, “Pharmaceutical compositions of tamsulosin or salts thereof” (WOCKHARDT LIMITED, priority 2013, published 2016).

Where a name gives a salt, the structure may show the parent alone. Read-outs that look alike come from different tables or passages of the source.

On to `CCOc1ccccc1OCCN[C@H](C)Cc1ccc(OC)c(S(N)(=O)=O)c1` [Tamsulosin hydrochloride, (-)-(R)-5-[2-[[2-(o-Ethoxyphenoxy)ethyl]amino]propyl]-2-methoxybenzene sulfonamide, monohydrochloride], for which the solubility result is, setting by setting: (in ethanol) “slightly soluble”; (in ether) “practically insoluble”; (in glacial acetic acid) “slightly soluble”; (in methanol) “sparingly soluble”; (in water) “sparingly soluble”.
